From PubChem BioAssay AID2691 (Broad Institute, 2010)
≈ marks a conversion by molar mass, not a printed value. Results filed as inconclusive are left out. Calls of active or inactive are those of the source.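 How the source made its calls: active means dose-dependent viability drop with mean lowest dose clearly under solvent controls below the top tested dose; inconclusive means self-fluorescent without titration, or replicates split around top dose; inactive means no such drop up to the top dose.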

Test system: NIH 3T3 viability, Alamar Blue fluorescence, 3 days
Assay: mammalian fibroblast cytotoxicity – cell-based, Alamar Blue fluorescence, MIC, cytotoxicity control for polyadenylation inhibitor project, dose response (AID 2691)

Compound | MIC
Cc1ccc(-c2nn3c(C)nnc3s2)cc1NC(=O)CSc1ccc(Cl)cc1 | > 25 µM (inactive)
N#CC1(C#N)C2=C(CCCC2)NC(c2ccccc2)C1(C#N)C#N (stereo not given) | > 25 µM (inactive)
COc1cc(/C=C2\SC(=S)N(NC(=O)c3cccnc3)C2=O)ccc1O | > 25 µM (inactive)
COc1cc(/C=C2/CC/C(=C/c3ccc(O)c(OC)c3)C2=O)ccc1O | > 25 µM (inactive)
Cc1ccc(Nc2c(-c3ccc(C)o3)nc3ncccn23)cc1 | > 25 µM (inactive)
O=C(Oc1c(-c2ccccc2)c(=O)n2c3c(cccc13)CC2)c1cccc([N+](=O)[O-])c1 | > 25 µM (inactive)
O=C(COC(=O)Cc1ccc(S(=O)(=O)N2CCOCC2)s1)NCc1ccc(Cl)cc1 | > 25 µM (inactive)
COc1cc(/C=C2\SC(=S)N(NC(=O)c3ccncc3)C2=O)ccc1O | > 25 µM (inactive)
Nc1ncnc2c1ncn2C1OC(CO)CC1O (stereo not given) | > 25 µM (inactive)
CCOc1cc(/C=C2\N=C(SC(C)C(N)=O)N(c3ccc(OC(F)F)cc3)C2=O)ccc1O (stereo not given) | > 25 µM (inactive)
CCN1/C(=C\C=C\c2sc3ccccc3[n+]2CC)Sc2ccccc21 | > 25 µM (inactive)
N#C/C(=C/c1ccc([N+](=O)[O-])o1)c1nc2ccccc2[nH]1 | 1.6 µM (≈ 0.448 µg/mL)
Cc1ccc2nc(/C(C#N)=C/c3ccc([N+](=O)[O-])o3)[nH]c2c1 | 0.8 µM (≈ 0.235 µg/mL)
CC(=O)c1ccc(Sc2ccccc2)c([N+](=O)[O-])c1 | > 25 µM (inactive)
Cc1ccc(C(=O)c2no[n+]([O-])c2C(=O)c2ccc(C)cc2)cc1 | 1.6 µM (≈ 0.516 µg/mL)
